# Patent publication US20220233556A1, “COMPOSITIONS AND METHODS FOR TREATING OPHTHALMIC CONDITIONS” (Medicon Pharmaceuticals, Inc., priority 2017, published 2022)
# Like-named read-outs stand apart in the source and are kept apart here.
# How the values were obtained:
# [1] = Safety of topically applied PS in rabbits (slit lamp, intraocular pressure, necropsy); format: in vivo
# Source text: The Safety of Topically Applied PS.
# [2] = tested on: NF-κB; test: NF-κB activation by EMSA in TNF-α-stimulated human conjunctival cells; format: cell-based; details: PS 5 h, then TNF-α 10 ng/ml, EMSA 1 h later
# Experimental: (§1) FIGS. 6A and 6B illustrate that PS suppresses the activation of NF-κB and MAPKs. In FIG. 6A, NF-κB activation was determined by EMSA in cultured human conjunctival cells stimulated with TNFα (top) and in the ILG of rabbits with Con A-induced DED and treated for one week with either vehicle or PS (bottom). In FIG. 6B, immunoblots detecting the activation of MAPKs by phosphorylation in cultured human conjunctival cells treated with PS at the indicated concentrations for 3.5 h. Loading control: β-actin.
# The Mechanism of Action of PS in Dry Eye. Tissue culture, animal and human studies have established inflammation as the core mechanism of DED. To determine the mechanism of action of PS in DED the response to PS of several factors known to play an important role in the inflammation associated with DED was explored. They include NF-κB; the cytokines TGF-β, IL-1β, IL-6 and IL-8; the collagenases MMP-1 and MMP-9; and PGE2. In these studies human conjunctival epithelial cells were used, the Wong-Kilbourne derivative of Chang conjunctival cells (clone 1 to 5c-4l American Type Culture Collection (Manassas, Va.) certified cell line, 20.2).
# Human conjunctival cells were treated with various concentrations of PS. Five hours later, TNF-α was added to the culture medium to a final concentration of 10 ng/ml and the status of NF-κB activation was determined by EMSA 1 h later. […]
# [3] = tested on: JNK and Erk1/2; test: MAPK activation by phosphorylation (immunoblots) in human conjunctival cells; format: cell-based; details: PS 3.5 h
# Experimental: as §1
# The conjunctiva cells used express only the JNK and Erk1/2 pathways.
# [4] = tested on: TGF-β; test: TGF-β levels in culture medium of human conjunctival cells (ELISA); format: cell-based
# Experimental: FIGS. 7A and 7B illustrate that PS suppresses cytokine levels in cultured conjunctival cells and the ILG of rabbits with DED. […] Cytokine levels were determined by ELISA and represent the average of a three samples. In FIG. 7B, IL-1β and IL-8 levels were determined by ELISA in the lacrimal glands of rabbits with Con A-induced DED that were treated with vehicle or PS for one week as previously. Gland tissue was homogenized and ELISA was performed on whole-tissue lysates. n=8 glands/group. Values=mean±SEM.
# Cells were treated with PS 1×IC50 and 2 h later TNF-α was added to the medium to a final concentration of 10 ng/ml. Culture media were harvested 24 h later and the levels of TGF-β, IL-6 and IL-8 were determined by ELISA. Of note, the levels of IL-1 were below the limit of detection.
# [5] = tested on: PGE2; test: PGE2 levels in tears and cornea of rabbits (ELISA); format: in vivo
# Experimental: FIGS. 9A and 9B illustrate that PS preserves the levels of PGE2 in tears and the cornea. In FIG. 9A, PGE2 levels were determined by ELISA in tears collected on day 7 from naïve rabbits and rabbits with Con A-induced DED treated for 1 week with vehicle or PS. In FIG. 9B, PGE2 levels were further examined. Upper panel: PGE2 levels in the tears of naïve rabbits and rabbits with Con A-induced DED treated for 1 h with PS or ketorolac as in Methods. Lower panel: PGE2 levels in the corneal tissue of naïve rabbits and rabbits with Con A-induced DED treated for 1 week with vehicle or PS or ketorolac or diclofenac. n=8 eyes/group. Values=mean±SEM.
# It was determined that the levels of PGE2 in rabbit tears in three groups of rabbits, naïve and those with Con A-induced DED that were treated for 1 week either with PS or vehicle.
# In an acute experiment, administered once topically to the eyes of four groups of rabbits with Con A-induced DED was one of the following: vehicle, PS, ketorolac or diclofenac; the latter two are NSAIDs used for the treatment of ocular inflammation and pain. It was determined that the levels of PGE2 in the cornea of these rabbits obtained 1 h later as well as in the corneas of naïve rabbits.
# [6] = tested on: Staphylococcus aureus; test: Disk diffusion method, antibiotic disks impregnated with PS; format: cell-based; details: PS 1-9% vs 0% PS
# Experimental: It was assessed whether the combination of PS with antibiotics for their topical application to the eye affects the antimicrobial activity of the antibiotics. To this end, the disk diffusion method was used.
# Briefly, Staphylococcus aureus grown in culture was seeded evenly on Muller-Hinton II Agar plates (BD Diagnostic Systems) at the standard concentration of 2×10^8 colony-forming units per mL. Antibiotic antimicrobial susceptibility disks (Thermo Scientific Oxoid™) were impregnated with one of six concentrations of PS (0%, 1%, 2%, 3%, 6%, 9%); 10 μL of each was evenly dispensed on each disk. An additional control was disks with no PS and no vehicle. The growth of bacteria around each disk was monitored and the area of “no growth” around each disk was measured 24 h later.
# [7] = PS biodistribution after topical alternative sodium alginate-based in-situ gel; format: in vivo, New Zealand white rabbits; details: New Zealand white, rabbit, 3 % PS in formulation
# Experimental: Composition: 3% PS, 1.5% sodium alginate, 15% Tween 80, 10% (2-hydroxypropyl)-β-cyclodextrin, 10% polyethylene glycol 400 (PEG400), 5% polyoxyl stearate.
# Preparation Method: A sodium alginate solution was prepared by adding an appropriate amount of sodium alginate to deionized water and heating the mixture to 90° C. with fast stirring (500 rpm). Once sodium alginate was completely dissolved, the solution was filtered through a 0.22 μm filter. Then, PS and additional excipients were added to achieve the above concentrations and stirred at 50° C. at 500 rpm until complete dissolution.
# Results: PS in this formulation was administered topically to the eyes of New Zealand white rabbits and its biodistribution was determined as above.
# [8] = weekly during 1-month application
# [9] = conjunctiva, read-out: PS in Conjunctiva
smiles,measurement,setting,value
"CCOP(=O)(OCC)OCCCCOC(=O)CC1=C(C)/C(=C/c2ccc([S+](C)[O-])cc2)c2ccc(F)cc21 (centres unmarked) [PS, phosphosulindac]",signs of uveitis,[1]; 1-month application,No animal developed signs of uveitis
same,Intraocular pressure,"[1]; Tonopen, 1-month application",remained normal
same,tolerability of ocular application,"[1]; rabbits, topical",very well tolerated
same,"slit lamp: corneal abnormalities (staining defects, vascularization, opacification, epithelial defects, stromal thinning, melts)",[1]; [8],nor were there signs of corneal abnormalities
same,slit lamp: follicular/papillary response or injection of the conjunctiva,[1]; [8],no evidence of follicular/papillary response or injection of the conjunctiva
same,activation of NF-κB,[2],significantly suppressed
same,activation by phosphorylation of JNK and Erk1/2,[3],profoundly suppressed
same,reduction of TNF-α-stimulated TGF-β levels,"[4]; PS 1×IC50, TNF-α 10 ng/ml, 24 h",19%
same,reduction of unstimulated TGF-β levels,"[4]; PS 1×IC50, not statistically significant",4.7%
same,PGE2 levels in tears,[5]; rabbits with Con A-induced DED treated 1 week,slightly lower than (but not significantly different from) those of naïve rabbits
same,PGE2 levels in the cornea,"[5]; rabbits with Con A-induced DED, administered once topically, 1 h later",no different than those of vehicle-treated and naïve rabbits
same,effect of PS on the inhibition zone of each antibiotic,[6],did not appreciably change
same,concentration at 1 h,"[7]; aqueous humor, read-out: PS in Aqueous humor",400 nM
same,concentration at 1 h,[7]; [9],4900 nM
same,concentration at 3 h,[7]; [9],2100 nM
same,concentration at 5 h,[7]; [9],2300 nM
same,concentration at 8 h,"[7]; conjunctiva, 8 h",1300 nM
same,concentration at 1 h,"[7]; cornea, read-out: PS in Cornea",17800 nM
same,concentration at 3 h,"[7]; cornea, read-out: PS in Cornea",5000 nM
same,concentration at 5 h,"[7]; cornea, read-out: PS in Cornea",1000 nM
